Assay results as given in BindingDB's records for PubMed 11408610 (Virginia Commonwealth University, 2001).

These compounds were tested against Cannabinoid receptor 1 (Rattus norvegicus, UniProt P20272).
Sequence of Cannabinoid receptor 1 (P20272 whole entry): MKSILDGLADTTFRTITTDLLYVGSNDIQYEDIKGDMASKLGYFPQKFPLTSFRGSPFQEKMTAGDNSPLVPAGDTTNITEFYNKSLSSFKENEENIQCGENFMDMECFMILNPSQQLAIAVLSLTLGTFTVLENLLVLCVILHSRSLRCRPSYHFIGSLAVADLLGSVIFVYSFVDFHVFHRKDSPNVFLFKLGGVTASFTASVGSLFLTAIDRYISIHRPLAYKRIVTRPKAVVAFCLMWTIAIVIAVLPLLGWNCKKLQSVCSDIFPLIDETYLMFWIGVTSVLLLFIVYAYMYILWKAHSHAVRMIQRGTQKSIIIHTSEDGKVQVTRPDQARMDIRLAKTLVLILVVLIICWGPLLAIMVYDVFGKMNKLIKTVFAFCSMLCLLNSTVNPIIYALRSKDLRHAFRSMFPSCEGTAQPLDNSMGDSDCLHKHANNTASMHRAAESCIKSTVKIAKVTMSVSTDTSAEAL
With CCCCCn1ccc(C(=O)c2cccc3ccccc23)c1 the Ki was 87 nM. With CCCn1ccc(C(=O)c2cccc3ccccc23)c1 [JWH-032] the Ki was > 10000 nM. In the case of Cn1ccc(C(=O)c2cccc3ccccc23)c1 [JWH-044], the Ki is reported as > 10000 nM. CCCCCCn1ccc(C(=O)c2cccc3ccccc23)c1 [CAS_162934-74-9] was tested, and the Ki was 399 nM. Work on CCCCn1cc(C(=O)c2cccc3ccccc23)c2ccccc21 [1-Naphthyl(1-butyl-1H-indole-3-yl)methanone] yielded a Ki of 8.9 nM. CCn1ccc(C(=O)c2cccc3ccccc23)c1 [JWH-045] was tested, and the Ki was > 10000 nM. CCCCC/C=C/C/C=C/C/C=C/C/C=C/CCC(C)C(=O)NCCF (configuration not stated) [(5Z,8Z,11Z,14Z)-N-(2-Fluoroethyl)-2-methyl-5,8,11,14-icosatetrenamide] showed a Ki of 5.7 nM. Work on CCCCC/C=C/C/C=C/C/C=C/C/C=C/CCC(C)(C)C(=O)NCCO [2-dimethyl-anandamide] yielded a Ki of 47 nM. CCCCCc1cc(O)c2c(c1)OC(C)(C)c1ccc(C)cc1-2 [6,6,9-Trimethyl-3-pentyl-6H-benzo[c]chromen-1-ol(Cannabinol)] was tested, and the Ki was 308 nM. CCCCCCC(C)(C)c1cc(O)c2c(c1)OC(C)(C)[C@@H]1CC=C(CO)CC21 (stereo partly drawn) [(R)-3-(1,1-Dimethyl-heptyl)-9-hydroxymethyl-6,6-dimethyl-6a,7,10,10a-tetrahydro-6H-benzo[c]chromen-1-ol] gave a Ki of 0.73 nM. CCCCCCCn1ccc(C(=O)c2cccc3ccccc23)c1 [JWH-036] showed a Ki of 309 nM. CCCCC/C=C/C/C=C/C/C=C/C/C=C/CCC(C)C(=O)NCCO (configuration not stated) [(5Z,8Z,11Z,14Z)-2-Methyl-N-(2-hydroxyethyl)-5,8,11,14-icosatetrenamide] showed a Ki of 53 nM.
